Source: patent publication US10961253B2, “Positive allosteric modulators of the muscarinic acetylcholine receptor M4” (Vanderbilt University, priority 2016, dated 2021)

Legend:
Human M4 = target: T1, Human M4 (Homo sapiens, UniProt P08173); test: mAChR M4 cell-based functional assay (calcium flux, potentiation of EC20 acetylcholine response); set-up: Emax: dose or concentration left out as unconfirmed; conditions: for Emax: CHO-K1
T1 sequence (P08173 1-479): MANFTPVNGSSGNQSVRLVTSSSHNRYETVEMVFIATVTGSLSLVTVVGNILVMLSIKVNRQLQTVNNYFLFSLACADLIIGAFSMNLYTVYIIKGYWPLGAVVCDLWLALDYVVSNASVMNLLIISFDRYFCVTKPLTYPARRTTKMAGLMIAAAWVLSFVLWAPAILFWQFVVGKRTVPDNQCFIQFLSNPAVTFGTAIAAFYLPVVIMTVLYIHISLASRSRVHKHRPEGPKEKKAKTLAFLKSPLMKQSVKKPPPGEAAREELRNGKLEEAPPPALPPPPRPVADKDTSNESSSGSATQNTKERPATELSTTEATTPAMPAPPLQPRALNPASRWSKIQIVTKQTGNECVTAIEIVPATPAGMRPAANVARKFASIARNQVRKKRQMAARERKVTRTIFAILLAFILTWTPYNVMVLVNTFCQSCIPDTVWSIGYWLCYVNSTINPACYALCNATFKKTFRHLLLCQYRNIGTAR

[1] = human, in vivo; cited from earlier work
[2] = similar profiles to known antipsychotic drugs, without causing catalepsy; cited from earlier work
[3] = Alzheimer's disease patients; delusions, suspiciousness, vocal outbursts, hallucinations; cited from earlier work

SMILES	EC50 (Human M4) [nM]	Emax (Human M4) [%]	elevated liver transaminases (hepatotoxicity), share of patients [1]	activity in animal models [2]	effect on psychotic behavioral symptoms [3]
C/C=C/c1ncnc2c1sc1nc(C)cc(C)c12 [Compound 2, (E)-7,9-dimethyl-4-(prop-1-en-1-yl)pyrido[3′,2′:4,5]thieno[3,2-d]pyrimidine; 2,2,2-trifluoroacetic acid]	> 10000	55.3			
Cc1cc(C)c2c(n1)sc1c(-c3nccs3)ncnc12 [Compound 3, 7,9-dimethyl-4-(thiazol-2-yl)pyrido[3′,2′:4,5]thieno[3,2-d]pyrimidine; 2,2,2-trifluoroacetic acid]	3400	62.2			
Cc1nnc2sc3c(C4CCCCC4)ncnc3c2c1C [Compound 16, 8-cyclohexyl-3,4-dimethylpyrimido[4′,5′:4,5]thieno[2,3-c]pyridazine]	52	72.6			
Cc1nnc2sc3c(C4CC4)ncnc3c2c1C [Compound 17, 8-cyclopropyl-3,4-dimethylpyrimido[4′,5′:4,5]thieno[2,3-c]pyridazine]	140	73.5			
Cc1nnc2sc3c(C4CCNCC4)ncnc3c2c1C [Compound 19, 3,4-dimethyl-8-(piperidin-4-yl)pyrimido[4′,5′:4,5]thieno[2,3-c]pyridazine]	4300	33.8			
Cc1nnc2sc3c(C4CCN(C(=O)C5(F)CC5)CC4)ncnc3c2c1C [Compound 20, (4-(3,4-dimethylpyrimido[4′,5′:4,5]thieno[2,3-c]pyridazin-8-yl)piperidin-1-yl)(1-fluorocyclopropyl)methanone]	490	39.1			
Cc1nnc2sc3c(C4CC(F)(F)C4)ncnc3c2c1C [Compound 22, 8-(3,3-difluorocyclobutyl)-3,4-dimethylpyrimido[4′,5′:4,5]thieno[2,3-c]pyridazine]		72.1			
Cc1nnc2sc3c(C4CCCN(C=O)C4)ncnc3c2c1C (stereo not shown) [Compound 23, 3-(3,4-dimethylpyrimido[4′,5′:4,5]thieno[2,3-c]pyridazin-8-yl)piperidine-1-carbaldehyde]	510	67			
Cc1nnc2sc3c(CCC4CCCCO4)ncnc3c2c1C (stereo not shown) [Compound 24, 3,4-dimethyl-8-(2-(tetrahydro-2H-pyran-2-yl)ethyl)pyrimido[4′,5′:4,5]thieno[2,3-c]pyridazine]	280	59.8			
Cc1nnc2sc3c(C4CCC(F)(F)CC4)ncnc3c2c1C [Compound 25, 8-(4,4-difluorocyclohexyl)-3,4-dimethylpyrimido[4′,5′:4,5]thieno[2,3-c]pyridazine]	45	96.3			
Cc1nnc2sc3c(C4CCN(C(=O)C5CC5)CC4)ncnc3c2c1C [Compound 26, cyclopropyl(4-(3,4-dimethylpyrimido[4′,5′:4,5]thieno[2,3-c]pyridazin-8-yl)piperidin-1-yl)methanone]	410	36.5			
Cc1nnc2sc3c(C4CCN(C(=O)C5CCCO5)CC4)ncnc3c2c1C (stereo not shown) [Compound 27, (4-(3,4-dimethylpyrimido[4′,5′:4,5]thieno[2,3-c]pyridazin-8-yl)piperidin-1-yl)(tetrahydrofuran-2-yl)methanone]	1900	58.2			
Cc1nnc2sc3c(CC(C)(C)C)ncnc3c2c1C [Compound 28, 3,4-dimethyl-8-neopentylpyrimido[4′,5′:4,5]thieno[2,3-c]pyridazine]		75.6			
CCCCc1ncnc2c1sc1nnc(C)c(C)c12 [Compound 29, 8-butyl-3,4-dimethylpyrimido[4′,5′:4,5]thieno[2,3-c]pyridazine]	540	93.4			
Nc1c2c(nc3ccccc13)CCCC2 [tacrine]			about 30%		
CCCCCCOc1nsnc1C1=CCCN(C)C1 [xanomeline]				active in animal models	reduce psychotic behavioral symptoms

Further lines, with some results ahead:

EC50 (Human M4) [nM]	Emax (Human M4) [%]	SMILES	elevated liver transaminases (hepatotoxicity), share of patients [1]	activity in animal models [2]	effect on psychotic behavioral symptoms [3]
150	98.8	Cc1cc(C)c2c(n1)sc1c(C3CCOCC3)ncnc12 [Compound 1, 7,9-Dimethyl-4-(tetrahydro-2H-pyran-4-yl)pyrido[3′,2′:4,5]thieno[3,2-d]pyrimidine]			
2800	58.1	Cc1cc(C)c2c(n1)sc1c(C)ncnc12 [Compound 4, 4,7,9-trimethylpyrido[3′,2′:4,5]thieno[3,2-d]pyrimidine]			
3900	61.5	Cc1cc(C)c2c(n1)sc1c(C3CC3)ncnc12 [Compound 5, 4-cyclopropyl-7,9-dimethylpyrido[3′,2′:4,5]thieno[3,2-d]pyrimidine]			
2900	59.1	CCc1ncnc2c1sc1nc(C)cc(C)c12 [Compound 6, 4-ethyl-7,9-dimethylpyrido[3′,2′:4,5]thieno[3,2-d]pyrimidine]			
480	65.6	Cc1cc(C)c2c(n1)sc1c(C3CCN(C=O)CC3)ncnc12 [Compound 7, 4-(7,9-dimethylpyrido[3′,2′:4,5]thieno[3,2-d]pyrimidin-4-yl)piperidine-1-carbaldehyde]			
> 10000	70.9	Cc1cc(C)c2c(n1)sc1c(C3CCCC3)ncnc12 [Compound 8, 4-cyclopentyl-7,9-dimethylpyrido[3′,2′:4,5]thieno[3,2-d]pyrimidine]			
6800	70.8	Cc1cc(C)c2c(n1)sc1c(C3CCCCC3)ncnc12 [Compound 9, 4-cyclohexyl-7,9-dimethylpyrido[3′,2′:4,5]thieno[3,2-d]pyrimidine]			
6100	98.8	Cc1cc(C)c2c(n1)sc1c(C3CCNCC3)ncnc12 [Compound 10, 7,9-dimethyl-4-(piperidin-4-yl)pyrido[3′,2′:4,5]thieno[3,2-d]pyrimidine]			
620	43.5	Cc1cc(C)c2c(n1)sc1c(C3CCN(C(=O)C4CC4)CC3)ncnc12 [Compound 11, cyclopropyl(4-(7,9-dimethylpyrido[3′,2′:4,5]thieno[3,2-d]pyrimidin-4-yl)piperidin-1-yl)methanone]			
820	62	Cc1cc(C)c2c(n1)sc1c(C3CCN(C(=O)C4(F)CC4)CC3)ncnc12 [Compound 12, (4-(7,9-dimethylpyrido[3′,2′:4,5]thieno[3,2-d]pyrimidin-4-yl)piperidin-1-yl)(1-fluorocyclopropyl)methanone]			
230	63	Cc1cc(C)c2c(n1)sc1c(C3CCN(C(=O)C4(C)CC4)CC3)ncnc12 [Compound 13, (4-(7,9-dimethylpyrido[3′,2′:4,5]thieno[3,2-d]pyrimidin-4-yl)piperidin-1-yl)(1-methylcyclopropyl)methanone]			
520	72.3	Cc1cc(C)c2c(n1)sc1c(C3CCN(C(=O)C4CCC4)CC3)ncnc12 [Compound 14, cyclobutyl(4-(7,9-dimethylpyrido[3′,2′:4,5]thieno[3,2-d]pyrimidin-4-yl)piperidin-1-yl)methanone]			
1000	44	Cc1cc(C)c2c(n1)sc1c(C3CCN(C(=O)C4CCCO4)CC3)ncnc12 (stereo not shown) [Compound 15, (4-(7,9-dimethylpyrido[3′,2′:4,5]thieno[3,2-d]pyrimidin-4-yl)piperidin-1-yl)(tetrahydrofuran-2-yl)methanone]			
	74.6	Cc1nnc2sc3c(C4CCOCC4)ncnc3c2c1C [Compound 18, 3,4-dimethyl-8-(tetrahydro-2H-pyran-4-yl)pyrimido[4′,5′:4,5]thieno[2,3-c]pyridazine]			
1600	41.8	Cc1cc(C)c2c(n1)sc1c(C3CCN(C4COC4)CC3)ncnc12 [Compound 21, 7,9-dimethyl-4-(1-(oxetan-3-yl)piperidin-4-yl)pyrido[3′,2′:4,5]thieno[3,2-d]pyrimidine]			
